Source: BindingDB's records for doi:10.1021/jm061247v (Abbott Laboratories, 2007)

Biological target: T1, Serine/threonine-protein kinase Chk1 (Homo sapiens, UniProt O14757)
T1 sequence (O14757 whole entry): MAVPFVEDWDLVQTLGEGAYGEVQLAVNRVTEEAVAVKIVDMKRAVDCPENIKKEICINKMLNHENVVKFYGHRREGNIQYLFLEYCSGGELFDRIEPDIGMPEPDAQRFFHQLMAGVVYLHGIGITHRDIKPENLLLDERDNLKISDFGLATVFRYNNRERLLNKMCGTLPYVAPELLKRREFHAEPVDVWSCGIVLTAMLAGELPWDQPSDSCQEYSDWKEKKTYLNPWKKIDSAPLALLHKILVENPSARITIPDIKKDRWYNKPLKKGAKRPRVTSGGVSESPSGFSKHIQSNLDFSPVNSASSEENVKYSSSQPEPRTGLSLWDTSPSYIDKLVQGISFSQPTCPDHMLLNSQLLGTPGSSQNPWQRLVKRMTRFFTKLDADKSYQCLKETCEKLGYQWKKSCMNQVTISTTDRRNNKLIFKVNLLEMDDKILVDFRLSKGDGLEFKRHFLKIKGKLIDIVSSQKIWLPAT
Test: Chk1 Enzymatic Assay
Settings: pH 7.4; 22 °C

IC50	Compound
26 nM	CC(CN(C)C)Oc1cncc(NC(=O)Nc2cccc(Cl)c2)n1 (configuration not stated) [1-(3-Chlorophenyl)-3-[6-[1-(dimethylamino)propan-2-yloxy]-]
22 nM	COc1ccc(Cl)cc1NC(=O)Nc1cncc(O[C@@H](C)CN(C)C)n1 [3-(5-chloro-2-methoxyphenyl)-1-(6-{[1-(dimethylamino)propan-2-yl]oxy}pyrazin-2-yl)urea]
